Experimental data as given in ChEMBL document CHEMBL3259697, “Identification of type II and III DDR2 inhibitors” (J Med Chem, 2014).
Active and inactive are the calls of the source. No cut-off for these calls is given here.

Columns and labels:
[1] = target: T1, Discoidin domain-containing receptor 2 (Homo sapiens, UniProt Q16832)
T1 sequence (Q16832 whole entry): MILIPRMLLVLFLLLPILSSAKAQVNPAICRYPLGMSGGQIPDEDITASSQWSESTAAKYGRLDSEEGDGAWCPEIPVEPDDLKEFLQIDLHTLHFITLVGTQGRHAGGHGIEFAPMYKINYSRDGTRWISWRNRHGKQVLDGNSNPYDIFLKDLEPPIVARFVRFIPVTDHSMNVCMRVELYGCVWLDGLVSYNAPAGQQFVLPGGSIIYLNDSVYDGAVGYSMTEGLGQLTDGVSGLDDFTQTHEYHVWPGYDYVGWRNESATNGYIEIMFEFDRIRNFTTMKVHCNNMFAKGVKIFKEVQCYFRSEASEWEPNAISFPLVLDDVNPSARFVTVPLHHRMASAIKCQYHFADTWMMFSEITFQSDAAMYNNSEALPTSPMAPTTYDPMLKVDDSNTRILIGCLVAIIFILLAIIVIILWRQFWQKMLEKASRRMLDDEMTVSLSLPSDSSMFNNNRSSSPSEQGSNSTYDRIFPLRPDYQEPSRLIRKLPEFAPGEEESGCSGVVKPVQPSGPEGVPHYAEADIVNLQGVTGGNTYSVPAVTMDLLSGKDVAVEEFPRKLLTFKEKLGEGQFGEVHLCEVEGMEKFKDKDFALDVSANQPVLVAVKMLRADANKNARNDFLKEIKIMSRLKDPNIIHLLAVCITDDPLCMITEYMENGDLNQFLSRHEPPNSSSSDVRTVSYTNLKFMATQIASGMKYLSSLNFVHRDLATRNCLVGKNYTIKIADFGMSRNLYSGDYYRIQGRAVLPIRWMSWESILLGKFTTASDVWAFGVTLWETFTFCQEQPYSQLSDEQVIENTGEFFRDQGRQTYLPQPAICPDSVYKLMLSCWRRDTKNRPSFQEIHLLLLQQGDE
Description: Binding affinity to human acrylodan-labeled N-terminal His-tagged DDR2 (558 to 855 aa) by FLiK assay

[2] = target: Discoidin domain-containing receptor 2 (Homo sapiens, UniProt Q16832, T654M); assay: Inhibition of DDR2 T654M mutant (unknown origin) preincubated for 30 mins before substrate addition by FRET assay
Sequence of Discoidin domain-containing receptor 2 (Homo sapiens, UniProt Q16832, T654M) (Q16832 22-855 T654M limits assumed): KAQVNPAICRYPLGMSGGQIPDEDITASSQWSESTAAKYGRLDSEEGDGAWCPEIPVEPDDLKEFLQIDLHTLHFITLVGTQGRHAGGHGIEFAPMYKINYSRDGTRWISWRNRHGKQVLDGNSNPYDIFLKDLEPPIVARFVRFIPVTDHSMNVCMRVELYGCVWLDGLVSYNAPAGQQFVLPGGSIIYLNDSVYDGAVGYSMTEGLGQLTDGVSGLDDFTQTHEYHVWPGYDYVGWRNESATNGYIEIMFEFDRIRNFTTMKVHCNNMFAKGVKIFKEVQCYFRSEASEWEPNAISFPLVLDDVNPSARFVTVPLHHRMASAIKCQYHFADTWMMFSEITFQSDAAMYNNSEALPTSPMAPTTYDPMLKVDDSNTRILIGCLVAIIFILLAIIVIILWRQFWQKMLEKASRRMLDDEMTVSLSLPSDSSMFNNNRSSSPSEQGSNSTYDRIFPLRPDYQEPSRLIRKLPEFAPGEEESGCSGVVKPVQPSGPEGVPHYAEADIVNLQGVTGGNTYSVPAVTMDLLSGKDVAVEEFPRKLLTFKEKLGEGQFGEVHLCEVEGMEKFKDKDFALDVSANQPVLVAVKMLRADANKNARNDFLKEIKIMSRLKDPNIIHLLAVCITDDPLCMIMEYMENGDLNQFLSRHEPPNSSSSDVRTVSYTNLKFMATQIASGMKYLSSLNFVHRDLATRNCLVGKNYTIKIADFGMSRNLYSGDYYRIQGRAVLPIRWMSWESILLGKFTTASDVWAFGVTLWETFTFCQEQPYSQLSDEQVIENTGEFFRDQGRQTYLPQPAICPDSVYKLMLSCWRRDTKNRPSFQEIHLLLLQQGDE

[3] = target: T1, Discoidin domain-containing receptor 2; remark: listed apart in the source
Description: Inhibition of wild type DDR2 (unknown origin) preincubated for 30 mins before substrate addition by FRET assay

[4] = target: T1, Discoidin domain-containing receptor 2; assay: Inhibition of DDR2 (unknown origin) after 120 mins by radiometric assay in presence of gamma-[33P]-ATP
[5] = target: Epithelial discoidin domain-containing receptor 1 (Homo sapiens, UniProt Q08345); assay: Inhibition of DDR1 (unknown origin) after 120 mins by radiometric assay in presence of gamma-[33P]-ATP
Sequence of Epithelial discoidin domain-containing receptor 1 (Q08345 whole entry, the tested form may be a part): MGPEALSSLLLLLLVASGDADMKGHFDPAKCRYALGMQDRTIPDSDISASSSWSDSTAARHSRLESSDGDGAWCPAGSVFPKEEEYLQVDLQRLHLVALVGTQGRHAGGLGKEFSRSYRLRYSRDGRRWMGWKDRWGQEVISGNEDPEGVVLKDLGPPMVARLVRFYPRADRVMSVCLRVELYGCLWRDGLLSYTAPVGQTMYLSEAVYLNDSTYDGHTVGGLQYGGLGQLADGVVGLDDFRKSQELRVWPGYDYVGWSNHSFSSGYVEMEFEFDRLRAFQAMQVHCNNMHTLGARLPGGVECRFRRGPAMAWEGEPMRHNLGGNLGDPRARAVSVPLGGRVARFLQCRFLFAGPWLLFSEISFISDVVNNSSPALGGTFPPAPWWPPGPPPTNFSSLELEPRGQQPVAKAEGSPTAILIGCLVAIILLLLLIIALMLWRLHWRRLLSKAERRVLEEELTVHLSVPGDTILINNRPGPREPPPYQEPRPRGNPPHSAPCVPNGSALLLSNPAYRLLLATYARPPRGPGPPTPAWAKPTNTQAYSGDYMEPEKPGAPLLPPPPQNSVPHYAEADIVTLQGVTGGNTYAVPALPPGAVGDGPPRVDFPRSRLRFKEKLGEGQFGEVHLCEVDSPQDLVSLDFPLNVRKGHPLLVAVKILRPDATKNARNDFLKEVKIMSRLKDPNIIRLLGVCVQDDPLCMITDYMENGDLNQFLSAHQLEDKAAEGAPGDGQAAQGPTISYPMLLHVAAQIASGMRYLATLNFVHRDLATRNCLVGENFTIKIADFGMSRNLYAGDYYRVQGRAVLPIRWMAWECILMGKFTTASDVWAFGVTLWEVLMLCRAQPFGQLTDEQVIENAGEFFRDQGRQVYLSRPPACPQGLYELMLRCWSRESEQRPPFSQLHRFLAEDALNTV

[6] = target: T1, Discoidin domain-containing receptor 2; assay: Binding affinity to human DDR2 by Ambit assay
[7] = target: T2, Discoidin domain-containing receptor 2 (Homo sapiens) (UniProt Q16832); assay: Reversible binding affinity to human acrylodan-labeled N-terminal His-tagged DDR2 (558 to 855 aa) at 100 nM by fluorescence spectroscopy
T2 sequence (whole entry): T1 sequence (Q16832 whole entry)

[8] = target: T1, Discoidin domain-containing receptor 2; assay: Binding affinity to human acrylodan-labeled N-terminal His-tagged DDR2 (558 to 855 aa) by fluorescence spectroscopy

CC(C)(C)c1cc(NC(=O)Nc2ccc(OCCN3CCOCC3)c3ccccc23)n(-c2cccc(N)c2)n1
Kd [1]: 20 nM | IC50 [2]: 72 nM | IC50 [3]: 8 nM

CC(C)(C)c1cc(NC(=O)Nc2ccccc2)n(-c2cccc(N)c2)n1
Kd [1]: > 1000 nM | IC50 [2]: 2500 nM | IC50 [3]: 9410 nM

Nc1c(-c2ccccc2)oc2ccccc2c1=O
Kd [1]: > 1000 nM | IC50 [2]: ≥ 100000 nM | IC50 [3]: 80800 nM

CC(C)(C)c1cc(NC(=O)Nc2ccc(Cl)cc2)n(-c2cccc([N+](=O)[O-])c2)n1
Kd [1]: 412 nM | IC50 [2]: 1230 nM | IC50 [3]: 856 nM

NC(=O)c1c(OCc2c(F)cc(Br)cc2F)nsc1NC(=O)NCCCCN1CCCC1 [OSI-632]
Kd [1]: 422 nM | IC50 [2]: 450 nM | IC50 [3]: 24 nM

CC(C)(C)c1cc(NC(=O)Nc2nc(CCOCc3ccccc3)cs2)n(-c2ccc(CC(=O)O)cc2)n1
Kd [1]: 382 nM | IC50 [2]: 670 nM | IC50 [3]: 2230 nM

CC(C)(C)c1cc(NC(=O)Nc2nc(CCOCc3ccc(F)cc3)cs2)n(-c2ccc(CC(=O)O)cc2)n1
Kd [1]: 424 nM | IC50 [2]: 76 nM | IC50 [3]: 1230 nM

CC(C)(C)c1cc(NC(=O)Nc2nccs2)n(-c2ccc(CC(=O)O)cc2)n1
Kd [1]: > 1000 nM | IC50 [2]: 820 nM | IC50 [3]: 9170 nM

CC(C)(C)c1cc(NC(=O)Nc2cccc3ccccc23)n(-c2cccc([N+](=O)[O-])c2)n1
Kd [1]: 428 nM | IC50 [2]: ≥ 100000 nM | IC50 [3]: 332 nM

O=C(Nc1ccc(OCCN2CCOCC2)c2ccccc12)c1cc(F)cc(N2CCOCC2)c1
Kd [1]: 915 nM | IC50 [3]: 10900 nM

COc1ccccc1NC(=O)c1sc2nc(C)c(C(=O)Nc3ccc(C)cc3C)c(-c3ccc(NC(C)=O)cc3)c2c1N
Kd [1]: > 1000 nM

Cc1cccc(-n2nc(C(C)(C)C)cc2NC(=O)Nc2ccc(Cl)cc2)c1
Kd [1]: 15 nM | IC50 [2]: 808 nM | IC50 [3]: 183 nM

Cc1ccc(-n2nc(C(C)(C)C)cc2NC(=O)Nc2nc(CCOCc3ccncc3)cs2)cc1
Kd [1]: 63 nM | IC50 [4]: 65 nM | IC50 [2]: 2 nM | IC50 [5]: 68 nM | IC50 [3]: 19 nM

CCOCCNc1cccc(-n2nc(C(C)(C)C)cc2NC(=O)Nc2ccc(OCCN3CCOCC3)c3ccccc23)c1
Kd [1]: > 1000 nM | IC50 [3]: 14400 nM

Cc1ccc(-n2nc(C(C)(C)C)cc2NC(=O)Nc2cccc3ccccc23)cc1
Kd [1]: 252 nM | IC50 [2]: ≥ 100000 nM | IC50 [3]: 408 nM

CC(C)(C)c1cc(NC(=O)Nc2nc(CCOCc3ccccc3)cs2)n(-c2cccc(CC(=O)O)c2)n1
Kd [1]: > 1000 nM | IC50 [2]: 1670 nM | IC50 [3]: 10700 nM

CCC(=O)Nc1cccc(-n2nc(C(C)(C)C)cc2NC(=O)Nc2ccc(OCCN3CCOCC3)c3ccccc23)c1
Kd [1]: 30 nM | IC50 [2]: 687 nM | IC50 [3]: 29 nM

O=C(O)Cc1ccc(-n2nc(C3CCCC3)cc2NC(=O)Nc2nc(CCOCc3ccccc3)cs2)cc1
Kd [1]: > 1000 nM | IC50 [2]: 1840 nM | IC50 [3]: 2170 nM

CC(C)(C)c1cc(NC(=O)Nc2cccc(Nc3ncnc4ccccc34)c2)n(-c2cccc(N)c2)n1
Kd [1]: > 1000 nM | IC50 [4]: 75 nM | IC50 [2]: 73 nM | IC50 [3]: 2 nM

O=C(O)Cc1cccc(-n2nc(C3CCCC3)cc2NC(=O)Nc2nc(CCOCc3ccccc3)cs2)c1
Kd [1]: 385 nM | IC50 [2]: 380 nM | IC50 [3]: 1560 nM

CC(C)(C)c1cc(NC(=O)Nc2ccc(Cl)cc2)n(-c2cccc(N)c2)n1
Kd [6]: 15 nM | Kd [1]: 15 nM | Activity [7]: Active | IC50 [2]: 717 nM | IC50 [3]: 558 nM | Kd [8]: 3.8 nM

CSc1ccc(-c2nc3cnccn3c2NC2CCCCC2)cc1
Kd [1]: > 1000 nM

Cc1ccc(-n2nc(C(C)(C)C)cc2NC(=O)Nc2nccs2)cc1
Kd [1]: 702 nM | IC50 [2]: 1150 nM | IC50 [3]: 4700 nM

Cc1ccc(-n2nc(C(C)(C)C)cc2NC(=O)Nc2nc(CCOCc3ccc(F)cc3)cs2)cc1
Kd [1]: 406 nM | IC50 [2]: 230 nM | IC50 [3]: 3040 nM

CC(C)(C)c1cc(NC(=O)Nc2ccc(Nc3ncnc4ccccc34)cc2)n(-c2cccc(N)c2)n1
Kd [1]: 93 nM | IC50 [4]: 18 nM | IC50 [2]: 1 nM | IC50 [3]: 3 nM
